Experimental data as given in US8329717B2, “Pyrimidine derivatives and their use for controlling undesired plant growth” (Bayer Cropscience AG, priority 2008, dated 2012).

Columns and labels:
Alopecurus myosuroides [1] = assay: Pre-emergence herbicidal effect; type: in vivo; details: Dosage 320 g/ha, visual scoring after 3 weeks vs untreated controls, 100% = plants have died
Outline: (§1)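 Visual percent damage was rated 3 weeks after treatment against untreated plants, where 100% meant dead and 0% meant like controls. Compounds, formulated as WP or EC, were applied pre-emergence to the covering soil at 600 to 800 l/ha with 0.2% wetting agent; rates in g/ha.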

Amaranthus retroflexus [2] = assay: Pre-emergence herbicidal effect; type: in vivo; details: Dosage 320 g/ha, visual scoring after 3 weeks vs untreated controls, 100% = plants have died
Outline: as §1

Avena fatua [3] = assay: Pre-emergence herbicidal effect; type: in vivo; details: Dosage 320 g/ha, visual scoring after 3 weeks vs untreated controls, 100% = plants have died
Outline: as §1

Echinochloa crus-galli [4] = assay: Pre-emergence herbicidal effect; type: in vivo; details: Dosage 320 g/ha, visual scoring after 3 weeks vs untreated controls, 100% = plants have died
Outline: as §1

Lolium multiflorum [5] = assay: Pre-emergence herbicidal effect; type: in vivo; details: Dosage 320 g/ha, visual scoring after 3 weeks vs untreated controls, 100% = plants have died
Outline: as §1

Matricaria inodora [6] = assay: Pre-emergence herbicidal effect; type: in vivo; details: Dosage 320 g/ha, visual scoring after 3 weeks vs untreated controls, 100% = plants have died
Outline: as §1

Polygonum convolvulus [7] = assay: Pre-emergence herbicidal effect; type: in vivo; details: Dosage 320 g/ha, visual scoring after 3 weeks vs untreated controls, 100% = plants have died
Outline: as §1

Setaria viridis [8] = assay: Pre-emergence herbicidal effect; type: in vivo; details: Dosage 320 g/ha, visual scoring after 3 weeks vs untreated controls, 100% = plants have died
Outline: as §1

Stellaria media [9] = assay: Pre-emergence herbicidal effect; type: in vivo; details: Dosage 320 g/ha, visual scoring after 3 weeks vs untreated controls, 100% = plants have died
Outline: as §1

Veronica persica [10] = assay: Pre-emergence herbicidal effect; type: in vivo; details: Dosage 320 g/ha, visual scoring after 3 weeks vs untreated controls, 100% = plants have died
Outline: as §1

Viola tricolor [11] = assay: Pre-emergence herbicidal effect; type: in vivo; details: Dosage 320 g/ha, visual scoring after 3 weeks vs untreated controls, 100% = plants have died
Outline: as §1

Alopecurus myosuroides [12] = assay: Post-emergence herbicidal effect; type: in vivo; details: Dosage 320 g/ha, one-leaf stage, visual scoring after ca. 3 weeks vs untreated controls, 100% = plants have died
Outline: (§2)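 Greenhouse-grown plants in sandy loam sprayed at one-leaf stage (2-3 weeks after sowing) with WP or EC formulations at 600 to 800 l/ha water plus 0.2% wetting agent; dose in g/ha. Visual % effect versus untreated controls scored after ca. 3 weeks (100% = dead).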

Amaranthus retroflexus [13] = assay: Post-emergence herbicidal effect; type: in vivo; details: Dosage 320 g/ha, one-leaf stage, visual scoring after ca. 3 weeks vs untreated controls, 100% = plants have died
Outline: as §2

Avena fatua [14] = assay: Post-emergence herbicidal effect; type: in vivo; details: Dosage 320 g/ha, one-leaf stage, visual scoring after ca. 3 weeks vs untreated controls, 100% = plants have died
Outline: as §2

Echinochloa crus-galli [15] = assay: Post-emergence herbicidal effect; type: in vivo; details: Dosage 320 g/ha, one-leaf stage, visual scoring after ca. 3 weeks vs untreated controls, 100% = plants have died
Outline: as §2

Lolium multiflorum [16] = assay: Post-emergence herbicidal effect; type: in vivo; details: Dosage 320 g/ha, one-leaf stage, visual scoring after ca. 3 weeks vs untreated controls, 100% = plants have died
Outline: as §2

Matricaria inodora [17] = assay: Post-emergence herbicidal effect; type: in vivo; details: Dosage 320 g/ha, one-leaf stage, visual scoring after ca. 3 weeks vs untreated controls, 100% = plants have died
Outline: as §2

Polygonum convolvulus [18] = assay: Post-emergence herbicidal effect; type: in vivo; details: Dosage 320 g/ha, one-leaf stage, visual scoring after ca. 3 weeks vs untreated controls, 100% = plants have died
Outline: as §2

Setaria viridis [19] = assay: Post-emergence herbicidal effect; type: in vivo; details: Dosage 320 g/ha, one-leaf stage, visual scoring after ca. 3 weeks vs untreated controls, 100% = plants have died
Outline: as §2

Stellaria media [20] = assay: Post-emergence herbicidal effect; type: in vivo; details: Dosage 320 g/ha, one-leaf stage, visual scoring after ca. 3 weeks vs untreated controls, 100% = plants have died
Outline: as §2

Veronica persica [21] = assay: Post-emergence herbicidal effect; type: in vivo; details: Dosage 320 g/ha, one-leaf stage, visual scoring after ca. 3 weeks vs untreated controls, 100% = plants have died
Outline: as §2

[22] = logp (HCOOH), chemicophysical data; details: for chromatographic logP: HCOOH (formic acid)
Abutilon theophrasti [23] = assay: Pre-emergence herbicidal effect; type: in vivo; details: Dosage 320 g/ha, visual scoring after 3 weeks vs untreated controls, 100% = plants have died
Outline: as §1

PHBPU = assay: Post-emergence herbicidal effect; type: in vivo; details: Dosage 320 g/ha, one-leaf stage, visual scoring after ca. 3 weeks vs untreated controls, 100% = plants have died
Protocol: 2. Post-Emergence Herbicidal Effect and Crop Plant Compatibility Seeds of monocotyledonous or dicotyledonous weed plants or crop plants are planted in wood-fiber pots in sandy loam, covered with earth and grown in a greenhouse under good growth conditions. 2 to 3 weeks after sowing, the test plants are treated in the one-leaf stage. The compounds according to the invention, formulated in the form of wettable powders (WP) or as emulsion concentrates (EC), are then sprayed onto the green plant parts as aqueous suspension or emulsion at a water application rate of 600 to 800 l/ha (converted) with the addition of 0.2% of wetting agent. The dosage of the compounds according to the invention is given in grams per hectare. After ca. 3 weeks' standing time of the test plants in the greenhouse under optimum growth conditions, the effect of the preparations is scored visually in comparison with untreated controls (herbicidal effect in percent (%): 100% effect=plants have died, 0% effect=as control plants).

Abutilon theophrasti [24] = assay: Post-emergence herbicidal effect; type: in vivo; details: Dosage 320 g/ha, one-leaf stage, visual scoring after ca. 3 weeks vs untreated controls, 100% = plants have died
Outline: as §2

Viola tricolor [25] = assay: Post-emergence herbicidal effect; type: in vivo; details: Dosage 320 g/ha, one-leaf stage, visual scoring after ca. 3 weeks vs untreated controls, 100% = plants have died
Outline: as §2

Cyperus esculentus = assay: Pre-emergence herbicidal effect; type: in vivo; details: Dosage 320 g/ha, visual scoring after 3 weeks vs untreated controls, 100% = plants have died
Outline: as §1

Row | SMILES | Pre-emergence herbicidal effect ALOMY (Alopecurus myosuroides [1]) [%] | Pre-emergence herbicidal effect AMARE (Amaranthus retroflexus [2]) [%] | Pre-emergence herbicidal effect AVEFA (Avena fatua [3]) [%] | Pre-emergence herbicidal effect ECHCG (Echinochloa crus-galli [4]) [%] | Pre-emergence herbicidal effect LOLMU (Lolium multiflorum [5]) [%] | Pre-emergence herbicidal effect MATIN (Matricaria inodora [6]) [%] | Pre-emergence herbicidal effect POLCO (Polygonum convolvulus [7]) [%] | Pre-emergence herbicidal effect SETVI (Setaria viridis [8]) [%] | Pre-emergence herbicidal effect STEME (Stellaria media [9]) [%] | Pre-emergence herbicidal effect VERPE (Veronica persica [10]) [%] | Pre-emergence herbicidal effect VIOTR (Viola tricolor [11]) [%] | Post-emergence herbicidal effect ALOMY (Alopecurus myosuroides [12]) [%] | Post-emergence herbicidal effect AMARE (Amaranthus retroflexus [13]) [%] | Post-emergence herbicidal effect ECHCG (Echinochloa crus-galli [15]) [%] | Post-emergence herbicidal effect LOLMU (Lolium multiflorum [16]) [%] | Post-emergence herbicidal effect MATIN (Matricaria inodora [17]) [%] | Post-emergence herbicidal effect POLCO (Polygonum convolvulus [18]) [%] | Post-emergence herbicidal effect SETVI (Setaria viridis [19]) [%] | Post-emergence herbicidal effect STEME (Stellaria media [20]) [%] | Post-emergence herbicidal effect VERPE (Veronica persica [21]) [%] | other results
1 | N#Cc1cnc(N[C@@H]2CCCc3ccccc32)nc1N [Example 1.30, 4-Amino-2-[(1R)-1,2,3,4-tetrahydronaphthalen-1-ylamino]pyrimidine-5-carbonitrile] | 100 | 100 | 100 | 100 | 100 | 100 | 100 | 100 | 100 | 100 | 100 | 95 | 93 | 100 | 100 | 80 | 80 | 95 | 80 | 90 | Post-emergence herbicidal effect AVEFA (Avena fatua [14]): 100%; chromatographic logP [22]: 1.92
2 | Cc1nc(N[C@@H]2CCOc3c(F)cccc32)nc(N)c1C#N [Example 1.26] | 100 | 100 | 90 | 100 | 100 | 100 | 90 | 100 | 100 | 100 | 100 | 85 | 85 | 90 | 90 | 80 | 80 |  | 90 | 95 | Pre-emergence herbicidal effect ABUTH (Abutilon theophrasti [23]): 80%; Post-emergence herbicidal effect PHBPU (PHBPU): 90%; Post-emergence herbicidal effect ABUTH (Abutilon theophrasti [24]): 80%; Post-emergence herbicidal effect VIOTR (Viola tricolor [25]): 85%
3 | Cc1nc(NC2CCOc3ccccc32)nc(N)c1C#N (racemic) [Example 1.25] | 100 | 100 |  | 100 | 100 | 100 |  | 100 | 100 | 100 | 90 | 90 | 90 | 90 | 95 |  |  |  | 100 | 95 | Pre-emergence herbicidal effect CYPES (Cyperus esculentus): 100%; logp (HCOOH) ([22]; HCOOH): solid, m.p.: 213.3° C.; logp (HCOOH): 1.55; 1H-NMR (CDCl3, 400 MHZ, δ in ppm): 2.10
4 | Cc1ccc2c(c1)[C@H](Nc1ncc(Br)c(N)n1)[C@@H](C)C2 [Example 1.67, 5-Bromo-N2-[(1R,2S)-2,6-dimethyl-2,3-dihydro-1H-inden-1-yl]pyrimidine-2,4-diamine] | 95 | 100 | 80 | 100 | 95 | 100 | 100 | 100 | 100 | 100 | 100 | 85 | 90 | 95 | 87 | 80 | 85 | 87 | 90 | 85 | Pre-emergence herbicidal effect ABUTH (Abutilon theophrasti [23]): 90%; Post-emergence herbicidal effect PHBPU (PHBPU): 93%; Post-emergence herbicidal effect ABUTH (Abutilon theophrasti [24]): 90%; Post-emergence herbicidal effect VIOTR (Viola tricolor [25]): 80%; chromatographic logP [22]: 1.3
5 | Cc1nc(N[C@@H]2CCCc3ccccc32)nc(N)c1C#N [Example 1.18] | 100 | 100 | 90 | 100 | 100 | 100 |  | 100 | 100 | 100 |  | 85 | 85 | 87 | 87 | 80 |  | 90 | 93 | 83 | Pre-emergence herbicidal effect ABUTH (Abutilon theophrasti [23]): 100%; Pre-emergence herbicidal effect CYPES (Cyperus esculentus): 80%; Post-emergence herbicidal effect PHBPU (PHBPU): 80%; Post-emergence herbicidal effect ABUTH (Abutilon theophrasti [24]): 85%; Post-emergence herbicidal effect VIOTR (Viola tricolor [25]): 85%
